Results on 18 compounds are retold here after patent US11903994B2, “Dosing regimens” (Apellis Pharmaceuticals, Inc., priority 2015, dated 2024).

Data set [1] has as its system complement activation. The note with it: relative to compstatin amidated at the C-terminus; published data; cited from earlier work.
Data set [2] is described as follows: Inhalation studies, single and repeated dosing. It is filed as in vivo, cynomolgus monkey. The note with it: inhaled CA28. The method, then: (§1) Inhalation studies of single dose or repeated dosing were conducted in dog and cynomolgus monkey. […] These doses were 25 mg/kg/d in a 7 day repeated dose study in the dog, 80 mg/kg in a single dose study in the monkey, and 30 mg/kg/day in a 14 day repeated dose in the monkey.

Data set [3] can be described thus: Inhalation study, repeated dosing. The note with it: 25 mg/kg/d, 7 day repeated dose, inhaled CA28. It counts as in vivo, dog. The method, then:
as §1

Data set [4] can be described thus: Phase 1 single and multiple ascending dose trial, inhaled (nebulized), healthy volunteers. It counts as in vivo, human. The method, then:
In the single ascending dose part of the trial, 16 subjects were enrolled in four cohorts of four subjects each.
Four subjects were enrolled in the first cohort of the multiple ascending dose part of the trial. These subjects were to receive 14 consecutive days of treatment with a 60 mg/day dose of the drug. […] The trial was paused and subsequently resumed, with subjects receiving 30 mg/day. […] The trial was then terminated.

Non-standard residues stand in square brackets, D forms with d. Trp(5-F) = N[C@@H](Cc1c[nH]c2ccc(F)cc12)C(=O)O; Trp(6-F) = N[C@@H](Cc1c[nH]c2cc(F)ccc12)C(=O)O; Bpa = N[C@@H](Cc1ccc(C(=O)c2ccccc2)cc1)C(=O)O; 1Nal = N[C@@H](Cc1cccc2ccccc12)C(=O)O; 2Nal = N[C@@H](Cc1ccc2ccccc2c1)C(=O)O; Igl = N[C@H](C(=O)O)C1Cc2ccccc2C1

“Ac-ICV(1-Nal)QDWGAHRCT-COOH (Ac-ICV[1Nal]QDWGAHRCT-OH; not fully specified (bridges); printed as Ac-ICV(1-Nal)QDWGAHRCT-COOH; cysteine pairing not given here) [Ac V4(1-Nal)/H9A-OH]”: in data set [1], the Activity over compstatin is on record as 30xmore. As to “Ac-ICVWQDWGAHRCdT-COOH [Ac-V4W/H9A/T13dT-OH]”, the Activity over compstatin in data set [1] is recorded as 55xmore. As to “Ac-ICV(2-lgl)QDWGAHRCT-COOH (Ac-ICV[Igl]QDWGAHRCT-OH; not fully specified (bridges); printed as Ac-ICV(2-lgl)QDWGAHRCT-COOH; cysteine pairing not given here) [Ac-V42lgl/H9A-OH]”, in data set [1], the Activity over compstatin is 37xmore. Turning to “Ac-ICV(2-Nal)QDWGAHRCT-CONH2 (Ac-ICV[2Nal]QDWGAHRCT-NH2; not fully specified (bridges); printed as Ac-ICV(2-Nal)QDWGAHRCT-CONH2; cysteine pairing not given here) [Ac-V4(2-Nal)/H9A]”, the Activity over compstatin in data set [1] is reported as 99xmore. In the case of Ac-ICVYQDWGAHRCT-CONH2 [Ac-V4Y/H9A], the Activity over compstatin in data set [1] is given as 14xmore.

For the compound “Ac-ICVWQD(5fW)GAHRCT-CONH2 [Ac-V4W/W7(5fW)/H9A]”, the Activity over compstatin in data set [1] was 121xmore. In the case of “Ac-ICV(5fW)QDWGAHRCT-CONH2 [Ac-V4(5fW)/H9A]”, in data set [1], the Activity over compstatin is on record as 31xmore.

Turning to “H-GICV(5fW)QD(5fW)GAHRCTN-COOH (H-GICV[Trp(5-F)]QD[Trp(5-F)]GAHRCTN-OH; not fully specified (bridges); cysteine pairing not given here) [G/V4(5f-W)/W7(5fW)/H9A + N-OH]”, the Activity over compstatin in data set [1] is on record as 112xmore.

Regarding “Ac-ICV(2-Nal)QDWGAHRCT-COOH (Ac-ICV[2Nal]QDWGAHRCT-OH; not fully specified (bridges); printed as Ac-ICV(2-Nal)QDWGAHRCT-COOH; cysteine pairing not given here) [Ac V4(2-Nal)/H9A-OH]”, in data set [1], the Activity over compstatin is recorded as 38xmore. On to `CC[C@H](C)[C@H](NC(C)=O)C(=O)N[C@H]1CSSC[C@@H](C(=O)N[C@H](C(N)=O)[C@@H](C)O)NC(=O)[C@H](CCCNC(=N)N)NC(=O)[C@H](Cc2cnc[nH]2)NC(=O)[C@H](C)NC(=O)CNC(=O)[C@H](Cc2c[nH]c3ccccc23)NC(=O)[C@H](CC(=O)O)NC(=O)[C@H](CCC(N)=O)NC(=O)[C@H](Cc2cn(C)c3ccccc23)NC(=O)[C@H](C(C)C)NC1=O` [CA28], for which the “findings at the highest inhaled dose tested” value in data set [2] (30 mg/kg/day, 14 day repeated dose) is given as “no drug-related findings”; in data set [2] (80 mg/kg, single dose) it was “no drug-related findings”; in data set [3] it was “no drug-related findings”. Also, the “adverse event possibly related to the pharmacology of the drug” value is “Another subject developed signs and symptoms consistent with a potential bacterial infection” in data set [4] (inhaled CA28 30 mg/day, after 10 days of treatment); “one subject developed signs and symptoms consistent with a potential bacterial infection” in data set [4] (inhaled CA28 60 mg/day, following nine days of treatment). Turning to Ac-ICVVQDWGHHRCT-CONH2 [Ac-compstatin], the Activity over compstatin in data set [1] was 3xmore.

With “Ac-ICV(5-methyl-W)QDWGAHRCT-CONH2 [Ac-V4(5-MeW)/H9A]”, the Activity over compstatin in data set [1] was 67xmore. On to “Ac-ICV(Bpa)QDWGAHRCT-CONH2 (Ac-ICV[Bpa]QDWGAHRCT-NH2; not fully specified (bridges); printed as Ac-ICV(Bpa)QDWGAHRCT-CONH2; cysteine pairing not given here) [Ac-V4(Bpa)/H9A]”, for which the Activity over compstatin in data set [1] is 86xmore.

With “H-GICV(6fW)QD(6fW)GAHRCTN-COOH (H-GICV[Trp(6-F)]QD[Trp(6-F)]GAHRCTN-OH; not fully specified (bridges); cysteine pairing not given here) [+G/V4(6fW)/W7(6fW)H9A + N-OH]”, the Activity over compstatin in data set [1] is 126xmore. As to “Ac-ICV(2-lgl)QDWGAHRCT-CONH2 (Ac-ICV[Igl]QDWGAHRCT-NH2; not fully specified (bridges); printed as Ac-ICV(2-lgl)QDWGAHRCT-CONH2; cysteine pairing not given here) [Ac-V42lgl/H9A]”, the Activity over compstatin in data set [1] is reported as 39xmore. Consider “Ac-ICVDhtQDWGAHRCT-COOH [Ac-V4Dht/H9A-OH]”, for which the Activity over compstatin in data set [1] is on record as 5xmore.

In the case of Ac-ICVWQDWGAHRCT-CONH2 [Ac-V4W/H9A], the Activity over compstatin in data set [1] was 45xmore.

In the case of “Ac-ICV(Bpa)QDWGAHRCT-COOH (Ac-ICV[Bpa]QDWGAHRCT-OH; not fully specified (bridges); printed as Ac-ICV(Bpa)QDWGAHRCT-COOH; cysteine pairing not given here) [Ac-V4(Bpa)/H9A-OH]”, in data set [1], the Activity over compstatin is reported as 49xmore.
